Measurements as given in the supplement of paper PMC10307832.

What was measured:
Experiment in all cases: relative viability (nuclei count vs DMSO), 5 days (fraction); higher = more cells survive
EHT 1864 + Tozasertib = compound: C1COCCN1CC2=CC(=O)C(=CO2)OCCCCCSC3=C4C=CC(=CC4=NC=C3)C(F)(F)F [EHT 1864] + Cc1cc(Nc2cc(N3CCN(C)CC3)nc(Sc3ccc(NC(=O)C4CC4)cc3)n2)n[nH]1 [Tozasertib] (partner 0.1 µM)
In short: (§1)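 For relative viability, nuclei counts in treated wells were divided by those in vehicle wells. Lung cancer cell lines had been pin-tool dosed in 1536-well plates the day after seeding and cultured for 5 days, then fixed and stained in one step (final 0.05% Triton X-100, 1% formaldehyde, 1 ug/ml Hoechst) and imaged at 4×. Doses were one drug alone or a fixed anchor-drug dose plus five library-drug doses (not always all listed) in √10 steps, and values are duplicate-plate medians.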

EHT 1864 + Foretinib = compound: C1COCCN1CC2=CC(=O)C(=CO2)OCCCCCSC3=C4C=CC(=CC4=NC=C3)C(F)(F)F [EHT 1864] + COc1cc2c(Oc3ccc(NC(=O)C4(C(=O)Nc5ccc(F)cc5)CC4)cc3F)ccnc2cc1OCCCN1CCOCC1 [Foretinib] (partner 0.25 µM)
In short: as §1

EHT 1864 + Luminespib = compound: C1COCCN1CC2=CC(=O)C(=CO2)OCCCCCSC3=C4C=CC(=CC4=NC=C3)C(F)(F)F [EHT 1864] + CCNC(=O)c1noc(-c2cc(C(C)C)c(O)cc2O)c1-c1ccc(CN2CCOCC2)cc1 [Luminespib] (partner 0.01 µM)
In short: as §1

EHT 1864 + AZD7762 = compound: C1COCCN1CC2=CC(=O)C(=CO2)OCCCCCSC3=C4C=CC(=CC4=NC=C3)C(F)(F)F [EHT 1864] + NC(=O)Nc1cc(-c2cccc(F)c2)sc1C(=O)N[C@H]1CCCNC1 [AZD7762] (partner 0.2 µM)
In short: as §1

Row | Cell Line | relative viability (EHT 1864 + Tozasertib; first compound 0.04 µM) | relative viability (EHT 1864 + Tozasertib; first compound 0.1265 µM) | relative viability (EHT 1864 + Tozasertib; first compound 0.4 µM) | relative viability (EHT 1864 + Tozasertib; first compound 1.265 µM) | relative viability (EHT 1864 + Tozasertib; first compound 4 µM) | relative viability (EHT 1864 + Foretinib; first compound 0.04 µM) | relative viability (EHT 1864 + Foretinib; first compound 0.1265 µM) | relative viability (EHT 1864 + Foretinib; first compound 0.4 µM) | relative viability (EHT 1864 + Foretinib; first compound 1.265 µM) | relative viability (EHT 1864 + Foretinib; first compound 4 µM) | relative viability (EHT 1864 + Luminespib; first compound 0.04 µM) | relative viability (EHT 1864 + Luminespib; first compound 0.1265 µM) | relative viability (EHT 1864 + Luminespib; first compound 0.4 µM) | relative viability (EHT 1864 + Luminespib; first compound 1.265 µM) | relative viability (EHT 1864 + Luminespib; first compound 4 µM) | relative viability (EHT 1864 + AZD7762; first compound 0.04 µM) | relative viability (EHT 1864 + AZD7762; first compound 0.1265 µM) | relative viability (EHT 1864 + AZD7762; first compound 0.4 µM) | relative viability (EHT 1864 + AZD7762; first compound 1.265 µM) | relative viability (EHT 1864 + AZD7762; first compound 4 µM)
1 | NCI-H1437 | 0.428 | 0.303 | 0.4 | 0.343 | 0.377 | 1.31 | 1.22 | 1.2 | 1.03 | 0.824 | 1.1 | 1.04 | 1.03 | 0.912 | 0.681 | 1.1 | 1.1 | 1.09 | 1.02 | 0.889
2 | NCI-H1651 | 0.631 | 0.705 | 0.549 | 0.479 | 0.523 | 0.836 | 0.757 | 0.845 | 0.691 | 0.827 | 0.694 | 0.907 | 0.803 | 0.704 | 0.57 | 0.396 | 0.439 | 0.469 | 0.482 | 0.556
3 | NCI-H1666 | 0.646 | 0.591 | 0.543 | 0.647 | 0.554 | 0.999 | 0.917 | 0.894 | 0.948 | 0.998 | 1 | 1.03 | 0.877 | 0.993 | 0.968 | 0.826 | 0.747 | 0.915 | 0.997 | 1.1
4 | NCI-H1734 | 0.282 | – | 0.265 | 0.273 | 0.259 | 0.911 | – | 0.706 | 0.961 | 0.826 | 0.242 | – | 0.222 | 0.182 | 0.179 | 0.65 | 0.427 | 0.537 | 0.611 | 0.618
5 | NCI-H1755 | 0.606 | 0.51 | 0.483 | 0.487 | 0.536 | 0.914 | 0.872 | 0.876 | 0.844 | 0.803 | 0.618 | 0.3 | 0.601 | 0.42 | 0.401 | 0.438 | 0.424 | 0.405 | 0.402 | 0.456
6 | NCI-H1793 | 0.294 | – | 0.341 | – | 0.285 | 0.604 | – | 0.667 | – | 0.789 | 0.143 | – | 0.141 | – | 0.178 | 0.609 | 0.458 | 0.496 | 0.193 | 0.298
7 | NCI-H1915 | 0.413 | – | 0.41 | 0.406 | 0.392 | 1.07 | – | 1 | 1.07 | 1.08 | 0.8 | – | 0.733 | 0.577 | 0.791 | 0.728 | – | 0.681 | 0.711 | 0.719
8 | NCI-H1944 | 0.283 | – | 0.277 | 0.234 | 0.292 | 0.893 | – | 0.882 | 0.89 | 0.701 | 0.827 | – | 0.74 | 0.712 | 0.802 | 0.5 | – | 0.511 | 0.563 | 0.665
9 | NCI-H1975 | 0.852 | 0.756 | 0.599 | – | 0.207 | 0.933 | 0.98 | 0.883 | – | 0.876 | 0.143 | 0.284 | 0.201 | 0.155 | 0.199 | 0.733 | 0.717 | 0.676 | 0.642 | 0.68
10 | NCI-H1993 | 0.581 | – | 0.549 | 0.575 | 0.536 | 0.741 | – | 0.748 | 0.75 | 0.744 | 0.737 | – | 0.813 | 0.865 | 0.795 | 0.71 | – | 0.827 | 0.775 | 0.83
11 | NCI-H2085 | 0.8 | – | 0.791 | 0.641 | 0.576 | 1.13 | – | 0.9 | 0.92 | 0.89 | 0.432 | – | 0.541 | 0.415 | 0.442 | 0.962 | 0.645 | 0.973 | 0.987 | 0.942
12 | NCI-H2087 | 0.373 | – | 0.291 | 0.241 | 0.202 | 1.01 | – | 1 | 1.01 | 0.845 | 0.175 | – | 0.143 | 0.168 | 0.135 | 1.25 | – | 1.2 | 1.25 | 1.23
13 | NCI-H2126 | 0.839 | 0.689 | 0.819 | 0.8 | 0.81 | 1.17 | 1.22 | 1.19 | 1.22 | 1.22 | 0.796 | 0.902 | 0.906 | 0.879 | 0.866 | 1.02 | 0.866 | 0.95 | 0.93 | 0.957
14 | NCI-H2170 | 0.7 | 0.52 | 0.775 | 0.692 | 0.658 | 1.01 | 1.01 | 0.998 | 0.943 | 1 | 0.725 | 0.751 | 0.745 | 0.63 | 0.612 | 0.77 | 0.764 | 0.9 | 0.86 | 0.963
15 | NCI-H2342 | 0.541 | 0.394 | 0.452 | 0.491 | 0.533 | 1.04 | 0.903 | 1.07 | 0.963 | 1.06 | 0.669 | 0.651 | 0.744 | 0.702 | 0.759 | 0.426 | 0.438 | 0.472 | 0.51 | 0.492
16 | NCI-H2347 | 0.606 | 0.446 | 0.501 | – | 0.562 | 0.974 | – | 0.862 | 0.363 | 0.809 | 0.859 | 0.47 | 0.401 | – | 0.745 | 0.776 | 0.654 | 0.621 | 0.727 | 0.792
17 | NCI-H2405 | 0.8 | 0.678 | 0.847 | 0.633 | 0.726 | 1.05 | 1.05 | 1.07 | 0.999 | 1.13 | 0.745 | 0.667 | 0.703 | 0.581 | 0.603 | 0.8 | 0.657 | 0.728 | 0.687 | 0.697
18 | NCI-H3122 | 0.358 | 0.275 | 0.398 | 0.398 | 0.392 | 0.938 | 0.983 | 0.961 | 0.982 | 0.885 | 0.102 | 0.0742 | 0.089 | 0.101 | 0.102 | 0.882 | 0.808 | 0.911 | 0.985 | 0.878
19 | PC-3 [JPC-3] | 0.818 | 0.812 | 0.903 | 0.896 | 0.843 | 1.04 | 0.887 | 0.943 | 0.968 | 0.936 | 0.742 | 0.695 | 0.664 | 0.673 | 0.696 | 0.825 | 0.753 | 0.808 | 0.73 | 0.863
20 | PC-14 | 0.607 | – | 0.555 | 0.623 | 0.53 | 0.997 | 0.906 | 0.994 | 0.932 | 0.878 | 0.121 | – | 0.199 | 0.196 | 0.143 | 0.368 | 0.248 | 0.394 | 0.304 | 0.433
21 | RERF-LC-KJ | 0.493 | 0.473 | 0.523 | 0.381 | 0.352 | 1.01 | 0.838 | 0.834 | 0.896 | 0.893 | 1.34 | 1.02 | 1.17 | 1.29 | 1.06 | 0.893 | 0.873 | 0.96 | 0.939 | 1.43
22 | SW 900 | 0.531 | – | 0.49 | 0.577 | 0.481 | 0.524 | – | 0.862 | 0.89 | 0.687 | 0.177 | – | 0.181 | 0.177 | 0.145 | 0.582 | – | 0.681 | 0.632 | 0.59
